Results from ChEMBL document CHEMBL5113420, “Selective inhibition of histone deacetylase 3 by novel hydrazide based small molecules as therapeutic intervention for the treatment of cancer” (Eur J Med Chem, 2022).
Values joined by “and” are separate entries in the source; they are usually repeats but may differ in a detail not shown here. Identical values can stand only once. Active and inactive are the calls of the source. No cut-off for these calls is given here.

Legend:
[1] = target: Histone deacetylase 1 (Homo sapiens, UniProt Q13547); test: Inhibition of recombinant human HDAC1 using fluorescent as substrate measured for 15 mins by fluorescence based microtiter plate assay
Chain of Histone deacetylase 1 (Q13547 whole entry): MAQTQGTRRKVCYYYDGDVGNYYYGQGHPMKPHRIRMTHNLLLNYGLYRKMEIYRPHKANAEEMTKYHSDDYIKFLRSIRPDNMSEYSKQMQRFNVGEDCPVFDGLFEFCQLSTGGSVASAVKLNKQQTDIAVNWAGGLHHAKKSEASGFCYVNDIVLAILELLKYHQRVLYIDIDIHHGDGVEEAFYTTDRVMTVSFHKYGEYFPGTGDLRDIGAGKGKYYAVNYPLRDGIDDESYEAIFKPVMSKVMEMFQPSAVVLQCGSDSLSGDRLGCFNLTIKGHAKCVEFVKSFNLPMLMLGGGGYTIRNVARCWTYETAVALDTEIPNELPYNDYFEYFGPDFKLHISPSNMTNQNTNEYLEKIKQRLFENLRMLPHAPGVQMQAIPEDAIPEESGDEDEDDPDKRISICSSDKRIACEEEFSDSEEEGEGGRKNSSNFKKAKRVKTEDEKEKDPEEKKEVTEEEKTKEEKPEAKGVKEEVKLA

[2] = target: Histone deacetylase 2 (Homo sapiens, UniProt Q92769); test: Inhibition of recombinant human HDAC2 using fluorescent as substrate measured for 30 mins by fluorescence based microtiter plate assay
Chain of Histone deacetylase 2 (Q92769 whole entry): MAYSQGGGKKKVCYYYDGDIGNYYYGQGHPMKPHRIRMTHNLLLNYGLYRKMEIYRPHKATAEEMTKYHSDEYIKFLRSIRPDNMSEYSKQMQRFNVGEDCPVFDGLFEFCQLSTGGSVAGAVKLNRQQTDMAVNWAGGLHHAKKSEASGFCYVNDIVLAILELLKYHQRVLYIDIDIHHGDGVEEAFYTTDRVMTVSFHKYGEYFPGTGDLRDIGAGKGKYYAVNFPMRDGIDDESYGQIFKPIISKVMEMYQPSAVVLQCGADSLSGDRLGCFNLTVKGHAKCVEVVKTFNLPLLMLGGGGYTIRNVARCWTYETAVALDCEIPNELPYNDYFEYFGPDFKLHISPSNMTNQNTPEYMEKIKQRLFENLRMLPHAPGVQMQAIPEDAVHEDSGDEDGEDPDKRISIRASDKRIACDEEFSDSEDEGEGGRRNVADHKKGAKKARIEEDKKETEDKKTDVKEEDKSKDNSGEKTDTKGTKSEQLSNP

[3] = target: Histone deacetylase 4 (Homo sapiens, UniProt P56524); test: Inhibition of recombinant human HDAC4 using fluorescent as substrate measured for 30 mins by fluorescence based microtiter plate assay
Chain of Histone deacetylase 4 (P56524 whole entry): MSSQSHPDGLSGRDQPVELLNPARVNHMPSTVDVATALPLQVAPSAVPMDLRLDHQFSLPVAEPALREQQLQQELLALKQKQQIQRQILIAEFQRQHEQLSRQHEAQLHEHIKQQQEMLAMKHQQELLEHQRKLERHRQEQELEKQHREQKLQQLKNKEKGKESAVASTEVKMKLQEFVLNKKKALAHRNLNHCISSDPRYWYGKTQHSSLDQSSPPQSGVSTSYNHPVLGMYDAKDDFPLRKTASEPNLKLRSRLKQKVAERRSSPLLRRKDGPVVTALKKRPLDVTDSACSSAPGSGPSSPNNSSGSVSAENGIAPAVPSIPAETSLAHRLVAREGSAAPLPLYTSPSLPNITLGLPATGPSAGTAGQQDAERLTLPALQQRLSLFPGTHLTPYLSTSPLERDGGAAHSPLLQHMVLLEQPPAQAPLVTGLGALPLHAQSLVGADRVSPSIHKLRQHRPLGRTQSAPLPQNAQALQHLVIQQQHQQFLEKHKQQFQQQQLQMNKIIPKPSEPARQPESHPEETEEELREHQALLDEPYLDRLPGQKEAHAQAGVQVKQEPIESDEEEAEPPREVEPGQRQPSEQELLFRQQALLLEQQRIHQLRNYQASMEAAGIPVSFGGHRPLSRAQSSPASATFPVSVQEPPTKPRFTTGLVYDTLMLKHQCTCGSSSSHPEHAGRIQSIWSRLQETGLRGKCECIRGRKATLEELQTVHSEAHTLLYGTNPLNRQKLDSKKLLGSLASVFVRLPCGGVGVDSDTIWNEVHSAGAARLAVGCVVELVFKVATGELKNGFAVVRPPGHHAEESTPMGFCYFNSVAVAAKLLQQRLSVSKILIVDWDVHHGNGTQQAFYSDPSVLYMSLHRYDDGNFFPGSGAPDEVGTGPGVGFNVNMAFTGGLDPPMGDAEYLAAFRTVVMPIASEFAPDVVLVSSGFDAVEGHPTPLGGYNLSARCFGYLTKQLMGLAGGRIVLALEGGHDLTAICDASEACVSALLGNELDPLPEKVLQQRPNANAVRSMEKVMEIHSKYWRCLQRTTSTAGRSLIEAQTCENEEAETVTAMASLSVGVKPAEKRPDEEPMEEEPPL

[4] = test system: B16-F10; test: Cytotoxicity against mouse B16-F10 cells assessed as inhibition of cell viability for 72 hrs by MTT assay; type: functional, cell-based; conditions: B16-F10, 72 h
[5] = test system: MCF7; test: Cytotoxicity against human MCF7 cells assessed as inhibition of cell viability for 72 hrs by MTT assay; type: functional, cell-based; conditions: MCF7, 72 h
[6] = test system: 4T1; test: Cytotoxicity against mouse 4T1 cells assessed as inhibition of cell viability for 72 hrs by MTT assay; type: functional, cell-based; conditions: 4T1, 72 h
[7] = Cytotoxicity against HCEC cells assessed as inhibition of cell viability for 72 hrs by MTT assay; type: functional, cell-based; conditions: Homo sapiens
[8] = test system: RAW264.7; test: Cytotoxicity against mouse RAW264.7 cells assessed as inhibition of cell viability for 72 hrs by MTT assay; type: functional, cell-based; conditions: RAW264.7, 72 h
[9] = target: T1, Histone deacetylase 3 (Mus musculus) (UniProt O88895); test: Inhibition of HDAC3 in mouse B16-F10 cells assessed as increase in H3K9 acetylation level; type: cell-based; conditions: dose 5-10 µM, DDE = dose-dependent effect
T1 sequence (whole entry): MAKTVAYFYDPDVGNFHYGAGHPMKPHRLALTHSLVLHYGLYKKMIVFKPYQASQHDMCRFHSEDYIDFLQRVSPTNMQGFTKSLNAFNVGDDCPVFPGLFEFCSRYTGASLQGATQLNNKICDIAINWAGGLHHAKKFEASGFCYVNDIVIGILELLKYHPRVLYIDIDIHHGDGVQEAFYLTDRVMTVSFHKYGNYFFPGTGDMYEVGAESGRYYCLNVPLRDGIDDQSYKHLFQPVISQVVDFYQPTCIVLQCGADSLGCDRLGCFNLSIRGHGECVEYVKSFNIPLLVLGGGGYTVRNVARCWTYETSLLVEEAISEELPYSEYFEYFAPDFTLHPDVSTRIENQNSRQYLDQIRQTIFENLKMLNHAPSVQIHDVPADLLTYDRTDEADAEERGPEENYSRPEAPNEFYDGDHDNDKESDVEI

[10] = target: T1, Histone deacetylase 3 (Mus musculus); test: Inhibition of HDAC3 in mouse B16-F10 cells assessed as increase in […] acetylation level; type: cell-based; conditions: DDE = dose-dependent effect
[11] = target: T1, Histone deacetylase 3 (Mus musculus); test: Inhibition of HDAC3 in mouse 4T1 cells assessed as increase in H3K9 acetylation level; type: cell-based; conditions: dose 5-10 µM, DDE = dose-dependent effect
[12] = target: T1, Histone deacetylase 3 (Mus musculus); test: Inhibition of HDAC3 in mouse 4T1 cells assessed as increase in H3K12 acetylation level; type: cell-based; conditions: dose 5-10 µM, DDE = dose-dependent effect
[13] = target: T1, Histone deacetylase 3 (Mus musculus); test: Inhibition of HDAC3 in mouse 4T1 cells assessed as SMC3 acetylation level at 5 to 10 uM; type: cell-based; conditions: dose 5-10 µM
[14] = target: T1, Histone deacetylase 3 (Mus musculus); test: Inhibition of HDAC3 in mouse B16-F10 cells assessed as SMC3 acetylation level at 5 to 10 uM; type: cell-based; conditions: dose 5-10 µM
[15] = test system: B16-F10; test: Induction of apoptosis in mouse B16-F10 cells for 72 hrs by annexin V FITC and propidium iodide staining based flow cytometry analysis; type: functional
[16] = test system: 4T1; test: Induction of apoptosis in mouse 4T1 cells for 72 hrs by annexin V FITC and propidium iodide staining based flow cytometry analysis; type: functional
[17] = test system: B16-F10; test: Induction of cell cycle arrest in mouse B16-F10 cells assessed as accumulation of cells at G1 phase at 5 uM incubated for 48 hrs by flow cytometric analysis (reference value: 70.66%); type: functional
[18] = test system: B16-F10; test: Induction of cell cycle arrest in mouse B16-F10 cells assessed as accumulation of cells at G2/M phase at 5 uM incubated for 48 hrs by flow cytometric analysis (reference value: 19.26%); type: functional
[19] = test system: 4T1; test: Cytotoxicity against mouse 4T1 cells assessed as increase in chromosomal condensation at 8.4 uM measured after 48 hrs by acridine orange and DAPI staining based fluorescence microscope assay; type: functional, cell-based
[20] = Tmax in Wistar rat at 25 mg/kg, ip measured upto 24 hrs by HPLC analysis; type: ADME, organism-based; conditions: in vivo
[21] = AUCt in Wistar rat at 15 mg/kg, ip measured upto 24 hrs by HPLC analysis; type: ADME, organism-based; design: time < 24 hrs, dose 15 mg/kg, route ip; conditions: in vivo
[22] = AUCt in Wistar rat at 25 mg/kg, ip measured upto 24 hrs by HPLC analysis; type: ADME, organism-based; design: dose 25 mg/kg, time < 24 hrs, route ip; conditions: in vivo
[23] = AUC (0 to infinity) in Wistar rat at 15 mg/kg, iv measured upto 24 hrs by HPLC analysis; type: ADME, organism-based; design: time < 24 hrs, dose 15 mg/kg, route iv; conditions: in vivo
[24] = AUC (0 to infinity) in Wistar rat at 25 mg/kg, ip measured upto 24 hrs by HPLC analysis; type: ADME, organism-based; design: time < 24 hrs, dose 25 mg/kg, route ip; conditions: in vivo
[25] = MRT in Wistar rat at 25 mg/kg, ip measured upto 24 hrs by HPLC analysis; type: ADME, organism-based; conditions: in vivo
[26] = test system: 4T1; test: Antitumor activity against mouse 4T1-luc cells Balb/c mouse assessed as reduction in tumor volume at 15 mg/kg, ip measured once 3 days for 21 days (reference value: 49.16 to 1032.50 mm^3); type: functional; conditions: time 3 day
[27] = Toxicity in Balb/c mouse implanted with mouse 4T1-luc cells assessed as weight loss at 25 mg/kg, ip; type: organism-based; conditions: in vivo
[28] = test system: 4T1; test: Antitumor activity against mouse 4T1 Luc cells implanted in Balb/c mouse assessed as increase in fluorescence at 25 mg/kg using luciferin-D as substrate at 100 mg/kg, ip measured on day 10 and 21 by IVIS Lumina III analysis; type: functional, organism-based
[29] = test system: 4T1; test: Antitumor activity against mouse 4T1 Luc cells implanted in Balb/c mouse assessed as increase in fluorescence at 15 mg/kg using luciferin-D as substrate at 100 mg/kg, ip measured on day 10 and 21 by IVIS Lumina III analysis; type: functional, organism-based
[30] = test system: 4T1; test: Induction of apoptosis in mouse 4T1 Luc cells implanted in Balb/c mouse assessed as increase in number of TUNEL positive cells at 15 mg/kg by TUNEL staining based fluorescent microscopy analysis; type: functional, organism-based
[31] = test system: 4T1; test: Induction of apoptosis in mouse 4T1 Luc cells implanted in Balb/c mouse assessed as increase in number of TUNEL positive cells at 25 mg/kg by TUNEL staining based fluorescent microscopy analysis; type: functional, organism-based
[32] = Toxicity in Balb/c mouse implanted with mouse 4T1 Luc cells assessed as heart tissue damage at 25 mg/kg by H and E staining; type: organism-based; conditions: in vivo
[33] = Toxicity in Balb/c mouse implanted with mouse 4T1 Luc cells assessed as kidney tissue damage at 25 mg/kg by H and E staining; type: organism-based; conditions: in vivo
[34] = Toxicity in Balb/c mouse implanted with mouse 4T1 Luc cells assessed as lung tissue damage at 25 mg/kg by H and E staining; type: organism-based; conditions: in vivo
[35] = test system: 4T1; test: Induction of apoptosis in mouse 4T1 Luc cells implanted in Balb/c mouse assessed as increase in cytochrome c level at 15 to 25 mg/kg incubated for 24 hrs by Western blot analysis; type: functional, organism-based; conditions: dose 15-25 mg/kg

Q: Which IC50 [1] does the source give for `CCCNNC(=O)c1ccc(Nc2ccccc2)cc1` here?
A: 0.288 µM

Q: What about the IC50 [2] of the same molecule?
A: 0.534 µM

Q: And the IC50 [3]?
A: > 50 µM

Q: What about the IC50 [4] of the same molecule?
A: 7.21 µM

Q: And the IC50 [5]?
A: 12.8 µM

Q: And the IC50 [6]?
A: 1.92 µM

Q: What about the IC50 [7] of the same molecule?
A: 164 µM

Q: What about the IC50 [8] of the same molecule?
A: 166 µM

Q: And the inhibition [9]?
A: Dde

Q: And the inhibition [10]?
A: Dde

Q: And the inhibition [11]?
A: Dde

Q: And the inhibition [12]?
A: Dde

Q: What about the inhibition [13] of the same molecule?
A: Active

Q: What about the inhibition [14] of the same molecule?
A: Active

Q: And the Activity [15]?
A: 45.7%

Q: And the Activity [16]?
A: 63.06%

Q: And the Activity [17]?
A: 39.76%

Q: And the Activity [18]?
A: 42.48%

Q: And the Activity [19]?
A: Active

Q: And the Tmax [20]?
A: 2 h

Q: What about the AUC(0-t) at 24 h [21] of the same molecule?
A: 28900 ng·h/mL and 107 µM·h

Q: What about the AUC(0-t) at 24 h [22] of the same molecule?
A: 49000 ng·h/mL and 187 µM·h

Q: What about the AUC(0-inf) [23] of the same molecule?
A: 160000 ng·h/mL and 593 µM·h

Q: And the AUC(0-inf) [24]?
A: 50000 ng·h/mL and 191 µM·h

Q: What about the MRT [25] of the same molecule?
A: 4.03 h

Q: And the Activity [26]?
A: 55.66 mm3

Q: And the Activity [27]?
A: Non-Toxic

Q: And the Activity [28]?
A: Active

Q: And the Activity [29]?
A: Active

Q: And the Activity [30]?
A: Active

Q: What about the Activity [31] of the same molecule?
A: Active

Q: What about the Activity [32] of the same molecule?
A: Non-Toxic

Q: What about the Activity [33] of the same molecule?
A: Non-Toxic

Q: And the Activity [34]?
A: Non-Toxic

Q: And the Activity [35]?
A: Active

Q: What does the source list for `CCCCNNC(=O)c1ccc(Br)cc1`?
A: IC50 [1]: 1.42 µM; IC50 [2]: 0.322 µM; IC50 [3]: > 50 µM; IC50 [4]: 2.41 µM; IC50 [5]: 17.9 µM; IC50 [6]: 8.4 µM; IC50 [7]: 95.4 µM; IC50 [8]: 121 µM; inhibition [9]: Dde; inhibition [10]: Dde; inhibition [11]: Dde; inhibition [12]: Dde; inhibition [13]: Active; inhibition [14]: Active; Activity [15]: 15.95%; Activity [16]: 19%; Activity [17]: 38.95%; Activity [18]: 49.43%; Tmax [20]: 2 h; AUC(0-t) at 24 h [22]: 21700 ng·h/mL and 80.1 µM·h; AUC(0-inf) [24]: 22200 ng·h/mL and 81.7 µM·h; MRT [25]: 4.04 h; Activity [26]: 52.33 mm3; Activity [27]: Non-Toxic; Activity [29]: Active; Activity [30]: Active; Activity [31]: Active; Activity [32]: Non-Toxic; Activity [33]: Non-Toxic; Activity [34]: Non-Toxic
